# According to patent US20230210999A1, “TARGETED PROTEASE DEGRADATION (TED) PLATFORM” (EUBULUS BIOTHERAPEUTICS INC., priority 2020, published 2023):
# Read-outs that look alike come from different tables or passages of the source.
# Assays:
# Assay type in all cases: cell-based, human
# MDA-MB-231 cells = assay: Cell proliferation experiment, MDA-MB-231; details: Homo sapiens
# Method: (§1) Reagents: RPMI-1640 medium, McCoy's 5A medium, IMDM medium, MEM medium, L-15 medium, fetal bovine serum. Penicillin-Streptomycin double antibody, trypsin, etc., 2-mercaptoethanol, NEAA, pyruvate, etc.
# (§2) The cells were cultured in conventional ways, and the cells should be passed at least 2 generations before plating. Cells at the logarithmic growth phase were collected, prepared into single cell suspensions and counted. The concentration of cells was adjusted to the desired concentration, and cells were inoculated into a 96-well cell culture plate at 100 μl per well. 100 μL of complete medium of the test compound were added to each well, set up 2 duplicate wells for each concentration, and diluted with a 5-fold gradient, and continued to culture for 72 h. All cells were subjected to IC50 test for corresponding samples. The experimental results are shown in Test Example 4.
# (§3) The fluorescence intensity of each well was detected using the Alarm blue method, and IC50 was calculated.
# (§4) IC50 was calculated according to the following formula:
# (§5) Y=Max+(Min−Max)/[1+(X/IC50)×Slope]
# (§6) wherein Min, Max and Slope represent the minimum, maximum and slope respectively.
# MV4;11 cells = assay: Cell proliferation experiment (Alamar blue, 72 h), MV4;11; details: read-out: Inhibitory activity IC50 on MV4;11
# Summary of the method: (§7)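 Viability measured by Alamar blue fluorescence after 72 h culture with compound (5-fold serial dilutions, two wells each) added to log-phase cells. IC50 derived from a Min/Max/Slope logistic equation.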
# NCIH82 cells = assay: Cell proliferation experiment, NCI-H82; details: Homo sapiens, NCI-H82, NCI-H82 cells; read-out: Inhibitory activity IC50 on NCI-H82
# Summary of the method: as §7
# PC-3 = assay: Cell proliferation experiment, PC-3; details: Homo sapiens, PC-3, PC-3 cells; read-out: Inhibitory activity IC50 on PC-3
# Method: as §1, §2, §3, §4, §5, §6
# [1] = MDA-MB-231, MDA-MB-231 cells, read-out: Inhibitory activity IC50 on MDA-MB-231
# [2] = Homo sapiens, MV4-11, MV4;11 cells
# [3] = MDA-MB-231, read-out: Inhibitory activity IC50 on MDA-MB-231
Structure (SMILES),IC50 (MDA-MB-231 cells; [1]),IC50 (MV4;11 cells; [2]),IC50 (NCIH82 cells),IC50 (PC-3),IC50 (MV4;11 cells; MV4;11 cells),IC50 (MDA-MB-231 cells; [3])
CNC(=O)c1ccccc1Nc1nc(Nc2ccc(N3CCN(C(=O)NCCCNCCOCC(=O)Nc4ccc5c(c4)CN(C4CCC(=O)NC4=O)C5=O)CC3)cc2)ncc1Cl (stereo not shown) [UB-181062],> 1000 nM,10 to 100 nM,100 to 1000 nM,> 1000 nM,,
CNC(=O)c1ccccc1Nc1nc(Nc2ccc(N3CCN(C(=O)NCCOCCNCCC(=O)Nc4cccc5c4CN(C4CCC(=O)NC4=O)C5=O)CC3)cc2)ncc1Cl (stereo not shown) [UB-181066],> 1000 nM,10 to 100 nM,> 1000 nM,> 1000 nM,,
CNC(=O)c1ccccc1Nc1nc(Nc2ccc(N3CCN(C(=O)NCCOCCNCC(=O)Nc4cccc5c4CN(C4CCC(=O)NC4=O)C5=O)CC3)cc2)ncc1Cl (stereo not shown) [UB-181068],> 1000 nM,10 to 100 nM,> 1000 nM,> 1000 nM,,
CNC(=O)c1ccccc1Nc1nc(Nc2ccc(N3CCN(C(=O)NCCCOCCCNCCC#Cc4cccc5c4CN(C4CCC(=O)NC4=O)C5=O)CC3)cc2)ncc1Cl (stereo not shown) [UB-181070],100 to 1000 nM,10 to 100 nM,100 to 1000 nM,> 1000 nM,,
CNC(=O)c1ccccc1Nc1nc(Nc2ccc(N3CCN(C(=O)NCCCOCC(=O)COCC#Cc4cccc5c4CN(C4CCC(=O)NC4=O)C5=O)CC3)cc2)ncc1Cl (stereo not shown) [UB-181083],> 1000 nM,10 to 100 nM,> 1000 nM,> 1000 nM,,
CNC(=O)c1ccccc1Nc1nc(Nc2ccc(N3CCN(C(=O)N[C@H]4CC[C@@H](NCCCOCCC#Cc5ccc6c(c5)CN(C5CCC(=O)NC5=O)C6=O)CC4)CC3)cc2)ncc1Cl (stereo partly shown) [UB-181084],100 to 1000 nM,< 10 nM,100 to 1000 nM,100 to 1000 nM,,
CNC(=O)c1ccccc1Nc1nc(Nc2ccc(N3CCN(C(=O)N[C@H]4CC[C@@H](NCCCOCCC#Cc5cccc6c5CN(C5CCC(=O)NC5=O)C6=O)CC4)CC3)cc2)ncc1Cl (stereo partly shown) [UB-181087],> 1000 nM,< 10 nM,100 to 1000 nM,100 to 1000 nM,,
CNC(=O)c1ccccc1Nc1nc(Nc2ccc(N3CCN(C(=O)NCCOCC(COCCOCCC(=O)Nc4cccc5c4CN(C4CCC(=O)NC4=O)C5=O)NC)CC3)cc2)ncc1Cl (stereo not shown) [UB-181088],,< 10 nM,> 1000 nM,> 1000 nM,,> 1000 nM
CNC(=O)c1ccccc1Nc1nc(Nc2ccc(N3CCN(C(=O)NCCOCC(COCCOCCC(=O)Nc4ccc5c(c4)CN(C4CCC(=O)NC4=O)C5=O)NC)CC3)cc2)ncc1Cl (stereo not shown) [UB-181090],,10 to 100 nM,> 1000 nM,> 1000 nM,,> 1000 nM
CNC(=O)c1ccccc1Nc1nc(Nc2ccc(N3CCN(C(=O)N[C@H]4CC[C@@H](NCCCOCC#Cc5cccc6c5CN(C5CCC(=O)NC5=O)C6=O)CC4)CC3)cc2)ncc1Cl (stereo partly shown) [UB-181091],100 to 1000 nM,< 10 nM,100 to 1000 nM,> 1000 nM,,
CNC(=O)c1ccccc1Nc1nc(Nc2ccc(N3CCN(C(=O)N[C@H]4CC[C@@H](NCCCOCCC(=O)Nc5cccc6c5CN(C5CCC(=O)NC5=O)C6=O)CC4)CC3)cc2)ncc1Cl (stereo partly shown) [UB-181092],> 1000 nM,10 to 100 nM,> 1000 nM,> 1000 nM,,
CNC(=O)c1ccccc1Nc1nc(Nc2ccc(N3CCN(C(=O)N[C@H]4CC[C@@H](NCCCOCCC(=O)Nc5ccc6c(c5)CN(C5CCC(=O)NC5=O)C6=O)CC4)CC3)cc2)ncc1Cl (stereo partly shown) [UB-181093],> 1000 nM,10 to 100 nM,> 1000 nM,> 1000 nM,,
CNC(=O)c1ccccc1Nc1nc(Nc2ccc(N3CCN(C(=O)NCCCOCCCNCCC#Cc4ccc5c(c4)CN(C4CCC(=O)NC4=O)C5=O)CC3)cc2)ncc1Cl (stereo not shown) [UB-181094],> 1000 nM,< 10 nM,100 to 1000 nM,> 1000 nM,,
CNC(=O)c1ccccc1Nc1nc(Nc2ccc(N3CCN(C(=O)NCCCCOCCCCNCCC#Cc4ccc5c(c4)CN(C4CCC(=O)NC4=O)C5=O)CC3)cc2)ncc1Cl (stereo not shown) [UB-181095],> 1000 nM,< 10 nM,100 to 1000 nM,100 to 1000 nM,,
CNC(=O)c1ccccc1Nc1nc(Nc2ccc(N3CCN(C(=O)N[C@H]4CC[C@@H](NCCCOCC#Cc5ccc6c(c5)CN(C5CCC(=O)NC5=O)C6=O)CC4)CC3)cc2)ncc1Cl (stereo partly shown) [UB-181096],100 to 1000 nM,< 10 nM,100 to 1000 nM,100 to 1000 nM,,
CNC(=O)c1ccccc1Nc1nc(Nc2ccc(N3CCN(C(=O)N[C@H]4C[C@H](NCCCOCCC#Cc5ccc6c(c5)CN(C5CCC(=O)NC5=O)C6=O)C4)CC3)cc2)ncc1Cl (stereo partly shown) [UB-181097],> 1000 nM,100 to 1000 nM,> 1000 nM,> 1000 nM,,
CNC(=O)c1ccccc1Nc1nc(Nc2ccc(N3CCN(C(=O)NCCCCOCCCCNC#Cc4cccc5c4CN(C4CCC(=O)NC4=O)C5=O)CC3)cc2)ncc1Cl (stereo not shown) [UB-181098],> 1000 nM,< 10 nM,10 to 100 nM,100 to 1000 nM,,

# Second part, led by results:
IC50 (MDA-MB-231 cells; [1]),IC50 (MV4;11 cells; [2]),IC50 (NCIH82 cells),IC50 (PC-3),IC50 (MV4;11 cells; MV4;11 cells),Structure (SMILES),IC50 (MDA-MB-231 cells; [3])
> 1000 nM,> 1000 nM,> 1000 nM,> 1000 nM,,NC(COCCOCCNC(=O)[C@]1(Cc2cccc(Nc3nccs3)n2)CC[C@@H](Oc2cccc(Cl)c2F)CC1)COCCC(=O)Nc1ccc2c(c1)CN(C1CCC(=O)NC1=O)C2=O (stereo partly shown) [UB-181064],
> 1000 nM,10 to 100 nM,100 to 1000 nM,> 1000 nM,,CNC(=O)c1ccccc1Nc1nc(Nc2ccc(N3CCN(C(=O)NCCOCCOCC(N)COCCC(=O)Nc4ccc5c(c4)CN(C4CCC(=O)NC4=O)C5=O)CC3)cc2)ncc1Cl (stereo not shown) [UB-181065],
> 1000 nM,10 to 100 nM,100 to 1000 nM,> 1000 nM,,CNC(=O)c1ccccc1Nc1nc(Nc2ccc(N3CCN(C(=O)NCCOCCNCCC(=O)Nc4ccc5c(c4)CN(C4CCC(=O)NC4=O)C5=O)CC3)cc2)ncc1Cl (stereo not shown) [UB-181067],
> 1000 nM,10 to 100 nM,> 1000 nM,> 1000 nM,,CNC(=O)c1ccccc1Nc1nc(Nc2ccc(N3CCN(C(=O)NCCOCCNCC(=O)Nc4ccc5c(c4)CN(C4CCC(=O)NC4=O)C5=O)CC3)cc2)ncc1Cl (stereo not shown) [UB-181069],
> 1000 nM,100 to 1000 nM,> 1000 nM,> 1000 nM,,O=C1CCC(N2Cc3cc(NC(=O)COCCOCCOCC(O)Cn4cc(-c5ccc(Nc6ncc7c(n6)-c6ccc(Cl)cc6C(c6c(F)cccc6F)=NC7)cc5)nn4)ccc3C2=O)C(=O)N1 (stereo not shown) [UB-181071],
> 1000 nM,100 to 1000 nM,> 1000 nM,> 1000 nM,,O=C1CCC(N2Cc3c(NC(=O)COCCOCCOCC(O)Cn4cc(-c5ccc(Nc6ncc7c(n6)-c6ccc(Cl)cc6C(c6c(F)cccc6F)=NC7)cc5)nn4)cccc3C2=O)C(=O)N1 (stereo not shown) [UB-181072],
> 1000 nM,< 10 nM,> 1000 nM,> 1000 nM,,CNC(=O)c1ccccc1Nc1nc(Nc2ccc(N3CCN(C(=O)NCCOCCOCC(N)COCCC(=O)Nc4cccc5c4CN(C4CCC(=O)NC4=O)C5=O)CC3)cc2)ncc1Cl (stereo not shown) [UB-181073],
> 1000 nM,10 to 100 nM,> 1000 nM,> 1000 nM,,CNC(=O)c1ccccc1Nc1nc(Nc2ccc(N3CCN(C(=O)NCCOCC(O)COCCOCCC(=O)Nc4ccc5c(c4)CN(C4CCC(=O)NC4=O)C5=O)CC3)cc2)ncc1Cl (stereo not shown) [UB-181074],
> 1000 nM,> 1000 nM,100 to 1000 nM,> 1000 nM,,O=C1CCC(N2Cc3cc(NC(=O)CCOCCOCCOCC(O)Cn4cc(-c5ccc(Nc6ncc7c(n6)-c6ccc(Cl)cc6C(c6c(F)cccc6F)=NC7)cc5)nn4)ccc3C2=O)C(=O)N1 (stereo not shown) [UB-181075],
> 1000 nM,,> 1000 nM,> 1000 nM,100 to 1000 nM,O=C1CCC(N2Cc3cc(NC(=O)CCOCCOCC(O)COCCn4cc(-c5ccc(Nc6ncc7c(n6)-c6ccc(Cl)cc6C(c6c(F)cccc6F)=NC7)cc5)nn4)ccc3C2=O)C(=O)N1 (stereo not shown) [UB-181077],
> 1000 nM,< 10 nM,100 to 1000 nM,> 1000 nM,,CNC(=O)c1ccccc1Nc1nc(Nc2ccc(N3CCN(C(=O)NCCOCC(O)COCCOCCC(=O)Nc4cccc5c4CN(C4CCC(=O)NC4=O)C5=O)CC3)cc2)ncc1Cl (stereo not shown) [UB-181079],
> 1000 nM,10 to 100 nM,> 1000 nM,> 1000 nM,,CNC(=O)c1ccccc1Nc1nc(Nc2ccc(N3CCN(C(=O)NCC(O)COCCOCCOCCC(=O)Nc4ccc5c(c4)CN(C4CCC(=O)NC4=O)C5=O)CC3)cc2)ncc1Cl (stereo not shown) [UB-181081],
> 1000 nM,10 to 100 nM,> 1000 nM,> 1000 nM,,CNC(=O)c1ccccc1Nc1nc(Nc2ccc(N3CCN(C(=O)NCC(O)COCCOCCOCCC(=O)Nc4cccc5c4CN(C4CCC(=O)NC4=O)C5=O)CC3)cc2)ncc1Cl (stereo not shown) [UB-181082],
> 1000 nM,10 to 100 nM,100 to 1000 nM,> 1000 nM,,CNC(=O)c1ccccc1Nc1nc(Nc2ccc(N3CCN(C(=O)NCCOCC(=O)COCCOCCC(=O)Nc4ccc5c(c4)CN(C4CCC(=O)NC4=O)C5=O)CC3)cc2)ncc1Cl (stereo not shown) [UB-181086],
